Here are results for 90 compounds from a melting point compilation (Tetko et al.; mined from patent text by program, amines drawn as free bases though some values may be those of a salt).

Where only a bound is given, the exact number is not on record here.

The melting point is the temperature, or range, at which the solid turns liquid. The compound `CNC(=O)N/N=C1/C(=O)N(CCN(C(C)C)C(C)C)c2ccccc21` displayed a melting point of 175 to 177 °C.
For `CC(=O)OC1CCC2C3CCC4=CC(=O)CCC4(CO)C3CCC12C` (stereo not given), the melting point was in the range of 166 to 168 °C.
On to `CC(C)CC(NC(=O)Cc1ccc(NC(=O)Nc2ccccc2)cc1)c1ncc(CCC(=O)O)s1` (stereo not given), for which the melting point is 146 to 148 °C.
Under `COC(=O)c1ccc(C(c2ccccc2)(c2ccccc2)c2ccccc2)cn1` stands 160 to 164 °C.
Under `C[C@@H](NC(=O)c1ccc(-c2cc(C(F)(F)F)nn2C)s1)[C@](O)(Cn1cncn1)c1ccc(F)cc1F` stands 106 to 110 °C; under `CCCCC(CC)COc1ccc2c(-c3ccc(CO)cc3)c3cc(OCC(CC)CCCC)ccc3c(-c3ccc(CO)cc3)c2c1` (stereo not given), 110 to 112 °C; under `O=CNc1ccccc1F`, 47 to 48 °C.
In turn, `CS(=O)(=O)c1ccc(-c2cnn(CC(F)(F)F)c(=O)c2SCC(F)(F)F)cc1` came in with a melting point of 155 to 158 °C.
Take `Nc1nc(N)c2c(n1)CCC(c1ccccc1)C2` (stereo not given): the melting point is 223 to 226 °C.
Compound `CCOC(=O)OCC1OC(n2cc(C=CBr)c(=O)[nH]c2=O)CC1Cl` (stereo not given) came in with a melting point of 181 °C.
As for `CNc1c([N+](=O)[O-])cc(C)cc1[N+](=O)[O-]`, the melting point amounted to 132 °C.
Under `O=C1/C(=C/C=C/c2ccccc2)CCc2cc(OCCn3ccnc3)ccc21` stands 198 to 200 °C.
The figure for `Oc1ncnc(C(F)F)c1Cl` is 148 to 150 °C; for `CCCCCCCCCCCCCCCCCCOC[C@@H]1CO[C@@H](COC(=O)Nc2ccncc2)C1` (relative stereo) it is 118 to 123 °C; for `CCCCCC(O)CNCCCCCCCCNCC(O)CCCCC` (stereo not given) it is 128 to 133 °C.
Under `CCC1(CC)C(=N)N(c2ccc(C#N)c(C(F)(F)F)c2)C(=S)N1C` stands 167 to 168 °C; under `O=C(O)Cc1cccc(F)c1OCCc1ccccc1`, 74 to 75 °C; under `Cc1nc2cccc(OCC(C)(C)C(=O)NC3CC3)c2c(N)c1C(=O)O`, 227 to 229 °C.
For the compound `c1ccc(Cc2n[nH]c(NCCCOc3cccc(CN4CCCCC4)c3)n2)cc1`, the melting point was 143 to 144 °C.
For the compound `CCOC(=O)C(F)Sc1ccc(O)cc1` (stereo not given), the melting point was 72 °C.
On to `CC(C)(C)C1=NCC(O)CN1` (stereo not given), for which the melting point is 210 °C.
Compound `COc1cc2c(cc1OC)N(C)C(=O)CN=C2c1cccc(-c2ccc(Cl)cc2)c1` displayed a melting point of 131 °C.
For `O=C1OCCC23C(=CC=CC12)C1=C(C=C3c2ccc3c(c2)OCO3)OCO1` (stereo not given), the melting point was in the range of 263 to 266 °C.
Under `Clc1cccc2c(CN3CCN(c4ccc5c(c4)OCO5)CC3)n[nH]c12` stands 173 to 174 °C; under `N#Cc1c(-c2ccc(C(F)(F)F)cc2)n(O)c2ccccc12`, 202 to 203 °C.
The figure for `N#CCc1cccc(OCc2csc(-c3ccccc3)n2)c1` is 108 to 110 °C; for `CCCCCCCCC1(CCCCCCCC)c2cc(N)ccc2-c2ccc(N)cc21` it is 58 to 63 °C.
`CCS(=O)(=O)c1ccc(N)cc1S(=O)(=O)NC(C)(C)C` gave a melting point of 193 to 195 °C.
Regarding `NC(=O)c1cc2c(Sc3ccccn3)cncc2s1`, the melting point is 239 to 242 °C.
Compound `CN1CCN2c3ccccc3Cn3c(c(C=O)c4ccccc43)C2C1` (stereo not given) displayed a melting point of 260 to 266 °C.
The compound `CC(C)c1ccc(N(Cc2ccc(N(C)C)cc2)C(=O)C2CCCc3ccc(O)cc32)cc1` (stereo not given) displayed a melting point of 214 to 217 °C.
Under `CCOC(=O)C1=CC(=O)N=N1` stands 235 to 238 °C; under `CSC(=CC(=O)c1ccccc1C)SC`, 96.2 °C; under `O=C(O)c1cnn(-c2ccc(C(F)(F)F)cc2)c1C(F)(F)F`, 157 to 158 °C.
`CN(CCN(O)C(N)=O)Cc1cccc(Oc2ccc(Cl)c(Cl)c2)c1` gave a melting point of 107 to 109 °C.
Under `CCOC(=O)c1cncc(OC)c1CCCOc1cccnc1Oc1cccc(Cl)c1` stands 82 to 83 °C; under `Cc1cc(C)cc(C(=O)N2CCNC(c3ccc(Cl)c(Cl)c3)C2)c1` (single isomer, unassigned; (+)), 97 to 100 °C; under `N#CC(C#N)=C1Sc2nc3cc(Cl)c([N+](=O)[O-])cc3nc2S1`, 297 to 299 °C.
The figure for `CCCc1nc(C)n2c(=O)n(CC(=O)O)nc2c1Cc1ccc(NC(=O)c2ccccc2S(=O)(=O)O)cc1` is 296 to 300 °C; for `O=C(c1ccccc1)C(Cc1ccc(Cl)cc1)c1cccnn1` (stereo not given) it is 140 to 142 °C.
In turn, `COc1cccc(OC)c1C=CC(=O)C=Cc1c(OC)cccc1OC` came in with a melting point of 152 to 154 °C.
Under `O=c1ccn(-c2ccc(-c3ccc(=O)[nH]n3)cc2)cc1` stands 339 to 341 °C.
The figure for `CCOC(=O)Nc1cc(OCC)cc2c1CC(C)O2` (stereo not given) is 64 °C; for `O=C(O)Cc1ccc(-c2ccccc2F)c(F)c1` it is 126 to 127 °C; for `O=C1c2ccccc2C(=O)N1CCc1cccc(N2C(=O)N(c3c(Cl)cccc3Cl)Cc3cnc(Nc4ccccc4)nc32)c1` it is 142 °C.
The figure for `NNc1cc2c(nn1)CCN(C(=O)CC(c1ccccc1)c1ccccc1)C2` is 175 to 178 °C; for `CCc1cc(-c2nnc3c4ccccc4c(OCc4ncn(C)n4)nn23)no1` it is 236 to 238 °C.
Take `COCCn1nc2c(N)nc3ccccc3c2c1CC(C)(C)C#N`: the melting point was 206 to 208 °C.
In turn, `OCc1cc2ccccc2cc1CO` registered a melting point of 161 to 162 °C.
Under `CCCC(c1ccccc1)c1c(O)c2c(oc1=O)CCCCCC2` (stereo not given) stands 173 to 175 °C; under `O=C1Nc2ccc(Cl)cc2C(c2ccc3[nH]c(=O)n(CCCO)c3c2)=N[C@H]1Cc1ccccc1Cl`, 210 °C.
In the case of `CC1COc2c(F)c(F)cc3c(=O)c(C(=O)O)cn1c23` (stereo not given), the melting point is more than 280 °C.
Compound `FC(F)(F)c1ccc(-c2cc(C(F)(F)F)n3ncc(Br)c3n2)cc1` displayed a melting point of 136 °C.
The figure for `O=C(c1ccc(Cl)cc1)C(Br)CCCl` (stereo not given) is 73 °C; for `Nc1nc2ccccc2c2sc(CO)nc12` it is 247 to 249 °C.
Under `Cc1cc(SC(C)C)c(NC(=O)CCCCCCSc2nc3ccccc3s2)c(SC(C)C)n1` stands 74 to 76 °C; under `CCOC(=O)C1CCN(C(=O)OCC)c2ccccc2C1O` (stereo not given), 93 °C; under `CCOC(=O)NC1Cc2ccccc2C1Sc1ccccc1` (stereo not given), 60.5 to 62 °C.
`Cn1c(COc2ccc(CC3SC(=O)NC3=O)cc2)nc2ccc(Oc3ccc(CCNC(=O)Nc4ccc(F)cc4F)cc3)cc21` (stereo not given) came in with a melting point of 161 to 164 °C.
Consider `O=C(O)[C@H](Cc1cccs1)NN1C(=O)c2ccccc2C1=O`, for which the melting point lay within 166 to 168 °C.
Under `COc1nc(=O)[nH]cc1C` stands 196 to 199 °C.
The compound `CCCOc1ccccc1-c1nc2nc(NN)ncc2c(=O)[nH]1` registered a melting point of 219 to 220 °C.
The figure for `O=C(c1ccc(-c2ccc(OCCCN3CCCCC3)cc2)cc1)N1CCCCC1` is 122 °C.
The compound `NC(=O)N(O)CCCCNC(=O)c1cccc(Oc2ccccc2)c1` showed a melting point of 131 to 133 °C.
Under `Cc1nc2cnccc2n1-c1ccc(CC(=O)O)cc1` stands 226 to 230 °C.
`COCOCc1nc(-c2ccccc2)oc1CCc1ccc(OCc2nc(-c3ccccc3)oc2C)cc1` registered a melting point of 124 to 125 °C.
The figure for `O=C1N(Cc2ccc(C(F)(F)F)o2)c2c(C(F)(F)F)cccc2C12COc1cc3c(cc12)OCO3` (stereo not given) is 95 to 98 °C; for `Cc1ccc(C(=O)Nc2ccc3ccc(Cl)nc3n2)cc1` it is 228 °C; for `COC(=O)C(Oc1ccc(Cl)c2c1CCC2)c1ccc(Oc2ccc(Cl)cc2)cc1` (stereo not given) it is 94 to 96 °C.
The figure for `NC(=O)c1sc2nc(N3CCC(NCC(O)c4cccc(F)c4)CC3)cc(C(F)(F)F)c2c1N` (stereo not given) is 215 °C; for `CN(C)c1nc(=O)[nH]n1C` it is 222 °C.
Compound `Cc1nc(Nc2c([N+](=O)[O-])cc(C(F)(F)F)c(Cl)c2[N+](=O)[O-])c(Cl)cc1Cl` registered a melting point of 128 to 130 °C.
Under `O=c1c2ccccc2[nH]n2cccc12` stands more than 300 °C; under `O=C(Nc1ccc(Cl)c(Cl)c1)NS(=O)(=O)c1ccc2c(c1)C(O)CO2` (stereo not given), 109 to 112 °C; under `CC1COCc2nc3c(N)nc4cc(CCS(C)(=O)=O)ccc4c3n21` (stereo not given), 205 to 206 °C.
The figure for `O=C1NC2(CCCC2)CCCC1Cl` (stereo not given) is 109 to 111 °C.
In the case of `CCN(CC)C(=O)n1ccc(S(=O)(=O)c2ccccc2OC)n1`, the melting point is 67 to 68 °C.
The figure for `Cc1nc(Cl)c2c(n1)c(C)nn2CC(F)(F)F` is 70 °C.
Compound `O=C(O)c1ccc(COc2ccc3c(c2)CCC(CCN2CCCCC2)C3)cc1` (stereo not given) yielded a melting point of 105 to 108 °C.
In turn, `Cc1c(Nc2ccc(Cl)cc2C(=O)O)cccc1C(F)(F)F` displayed a melting point of 220 to 222 °C.
On to `CCN(CC)c1ccc(-c2cc(-c3ccc(C(=O)O)cc3)ccc2O)cc1C(F)(F)F`, for which the melting point came out at 195 °C.
The figure for `CCOC(=O)c1cn(C)c2c(=O)c3cc(Cl)ccc3oc2c1=O` is 295 to 297 °C.
The compound `N#Cc1nn(-c2c(Cl)cc(C(F)(F)F)cc2Cl)c(N)c1-c1ccc(F)cc1` returned a melting point of 222 to 223 °C.
Compound `CCOC(=O)c1cnn2c(-c3ccncc3)ccnc12` gave a melting point of 209 to 210 °C.
The figure for `COc1ccc2c(c1)NC(=O)C(Cl)CC2` (stereo not given) is 162 to 163 °C; for `Cc1ccc2nc(-c3ccccc3)cc(OCC(=O)N3CCOCC3)c2c1` it is 158 °C; for `COc1ccc(C=C(C#N)C#N)c2c1OC(C)(C)C2` it is 198 to 200 °C.
The figure for `N=c1nc(N)c2ncn(Cc3ccccc3)c2c(N)n1` is 202 to 204 °C; for `O=C(O)CCSC(=S)Nc1ccc(Oc2ccc([N+](=O)[O-])cc2)cc1` it is 146 °C.
In turn, `C=C(C)COc1cc(C)c(NC(=O)CC(C)(C)C)c(C)c1Cc1ccc(C(C)C)cc1` returned a melting point of 129 to 130 °C.
